Data on 28 molecules can be found in ChEMBL document CHEMBL1145570, “Design and synthesis of 2-pyridones as novel inhibitors of the Bacillus anthracis enoyl-ACP reductase” (Bioorg Med Chem Lett, 2008).

Values after ≈ are worked out from the molar mass of the structure shown.

This assay concerns Bacillus anthracis. The experiment in a line: microbe, parasite or virus in culture. The assay is classed as functional. As to conditions: dANR.
`COc1ccc(Cn2ccc(O)cc2=O)cc1`: the MIC was above 80 µg/mL.

Turning to `O=c1cc(O)ccn1Cc1ccccc1`, the MIC is above 80 µg/mL.

As for `CC(=O)Nc1ccc(Cn2ccc(OCc3ccccc3)cc2=O)c(Cl)c1`, the MIC is above 80 µg/mL.

Molecule `C#CCn1ccc(OCc2ccccc2)cc1=O` displayed an MIC above 100 µg/mL.

With `O=c1[nH]c(OCc2ccccc2)ccc1Cc1ccccc1`, the MIC was above 100 µg/mL.

Take `COc1ccc(Oc2ccccc2Cl)c(=O)[nH]1`: the MIC is above 100 µg/mL.

On to `[O-][n+]1cc(Cl)ccc1Oc1ccc(Cl)cc1Cl`, for which the MIC was above 100 µg/mL.

In turn, `O=c1cc(OCc2ccccc2)ccn1Cc1ccccc1Cl` showed an MIC of 16 µg/mL (≈ 49.1 µM).

`COc1ccc(Cn2ccc(OCCCn3c4ccccc4c4ccccc43)cc2=O)cc1` registered an MIC above 80 µg/mL.

`O=c1cc(OCc2cccc3ccccc23)ccn1Cc1ccccc1Cl` had an MIC above 80 µg/mL.

`O=c1cc(OCCCn2c3ccccc3c3ccccc32)ccn1Cc1ccccc1` returned an MIC above 80 µg/mL.

Take `COc1ccc(Oc2ccc(Cl)cc2Cl)c(=O)[nH]1`: the MIC was above 100 µg/mL.

In turn, `Nc1ccc(Cn2ccc(OCc3ccccc3)cc2=O)c(Cl)c1` had an MIC above 80 µg/mL.

Turning to `O=c1cc(OCc2ccccc2)ccn1Cc1ccc([N+](=O)[O-])cc1Cl`, the MIC is above 80 µg/mL.

Molecule `O=C(O)c1ccc(Cn2ccc(OCc3ccccc3)cc2=O)c(Cl)c1` showed an MIC above 80 µg/mL.

`NC(=O)c1ccc(Cn2ccc(OCc3ccccc3)cc2=O)c(Cl)c1` yielded an MIC above 80 µg/mL.

As to `O=c1cc(OCc2ccc3ccccc3c2)ccn1Cc1ccccc1Cl`, the MIC was above 80 µg/mL.

For `O=c1cc(OCCCn2nnc3ccccc32)ccn1Cc1ccccc1Cl`, the MIC is above 80 µg/mL.

With `O=c1cc(OCCCn2ccnc2)ccn1Cc1ccccc1Cl`, the MIC is above 80 µg/mL.

For `O=c1cc(OCCCn2ccc3ccccc32)ccn1Cc1ccccc1Cl`, the MIC was above 80 µg/mL.

`O=c1cc(O)ccn1Cc1ccc(O)cc1` yielded an MIC above 80 µg/mL.

Consider `O=c1cc(OCc2ccccc2)ccn1Cc1ccccc1`, for which the MIC is above 80 µg/mL.

`N#Cc1ccc(COc2ccn(Cc3ccccc3Cl)c(=O)c2)cc1` gave an MIC above 80 µg/mL.

Take `COc1ccc(Oc2ccccc2Cl)c[n+]1[O-]`: the MIC is above 100 µg/mL.

In turn, `CCOC(=O)c1cc(Cn2ccc(OCc3ccccc3)cc2=O)on1` registered an MIC above 100 µg/mL.

Take `N#Cc1ccc(Cn2ccc(OCc3ccccc3)cc2=O)c(Cl)c1`: the MIC was above 80 µg/mL.

As to `O=c1cc(OCCCn2c3ccccc3c3ccccc32)ccn1Cc1ccccc1Cl`, the MIC is above 80 µg/mL.

Take `Oc1cc(Cl)ccc1Oc1ccc(Cl)cc1Cl` [TRICLOSAN]: the MIC is 3.1 µg/mL (≈ 10.7 µM).
